Patent publication US20090123581A1, “COLLAGEN CROSS-LINKING AGENTS ON DENTAL RESTORATIVE TREATMENT AND PREVENTIVE DENTISTRY” (THE BOARD OF TRUSTEES OF THE UNIVERSITY OF ILLINOIS, priority 2006, published 2009)

Columns and labels:
[1] = Modulus of elasticity of demineralized dentin, 3-point bend method (Example 3); design: species or system human; conditions: for modulus of elasticity, pooled data: pooled over all times (baseline to 4 h)
Text: Twelve sound extracted human molars were used. The teeth were thawed, cleaned of adhering soft tissues, and the occlusal surfaces were ground flat with #320 grit silicon carbide abrasive paper under running water to remove part of the enamel (Buehler, Lake Bluff, Ill.). Flattening of the occlusal surface by cusp removal enables more accurate sectioning of samples. The root portion was sectioned 1 mm below the CEJ and discarded. Teeth were sectioned into 0.5±0.1 mm thick beams (n=5 beams per tooth) in the mesio-buccal direction with a slow speed diamond wafering blade (Buehler-Series 15LC Diamond) under constant water irrigation (FIG. 1A). The sections were further trimmed using a cylindrical diamond bur (#557D, Brasseler, Savannah, Ga.) in a high speed handpiece, to a final rectangular dimension of 0.5 mm thickness×1.7 mm width×7.0 mm length. A dimple was made at one end of the surfaces to allow for repeated measurements to be performed on the same surface (FIG. 1A).
Specimens were immersed in 10% phosphoric acid solution (LabChem Inc, Pittsburgh, Pa.) for a period of 5 hours and thoroughly rinsed with distilled water for 10 minutes. X-rays were taken of the specimens to verify complete tissue demineralization. Demineralized specimens were randomly divided into the following groups according to dentin treatment (FIG. 1B): 2.5% glutaraldehyde (Fisher Biotech, Fair Lawn, N.J.) in PBS (pH: 7.4); 5% glutaraldehyde in PBS (pH: 7.4); 25% glutaraldehyde in PBS (pH: 7.4); 0.65% grape seed extract (Mega-Natural—Polyphenolics Ind., Madera, Calif.) in PBS (pH: 7.4); and 6.5% grape seed extract in PBS solution (pH: 7.4). Specimens were immersed in water for baseline measurements and then in their respective solutions for 10 min, 30 min, 1 hour, 2 hour and 4 hours of cumulative exposure (FIG. 1C).
The 3-point bend method was selected for evaluation of the modulus of elasticity. The advantages of this method are that it requires no gripping of these small specimens and that it is non-destructive and therefore permits repeated measurements to be performed (FIG. 1C). An aluminum alloy fixture with a 5.0 mm span between supports was glued to the bottom of a glass Petri dish. Specimens were tested in compression while immersed in liquid using a Vitrodyne testing machine (Model V-1000, Chatillon, Greensboro, N.C.) with a 50 grams load cell at crosshead speed of 0.5 mm/min. Load-displacement curves were converted to stress-strain curves and the apparent modulus of elasticity calculated at 3% strain. Displacement (D) during compression was calculated at a maximum strain of 3% using the following formula (Nielsen L E. Mechanical properties of polymers and composites. Vol. 1, New York: Marcel Dekker Inc., 1974, p. 45.):
Where ε is strain, L is support span and T is thickness of the specimen.
Then the modulus of elasticity (É) of the specimens was calculated using the following formula (Nielsen, 1974): […]
Where P is the maximum load, L is the support span, D is the displacement, b width of the specimen and T is the thickness of the specimen.
Baseline measurements were obtained with specimens immersed in distilled water. All experimental periods were evaluated with the samples immersed in their respective cross-linking agents. A total of 10-12 specimens were evaluated per group. The data were collected and statistically analyzed using a General Linear Model SPSS program for ANOVA repeated measurements at a 95% confidence interval.

[2] = UTS of demineralized crown dentin tested parallel and perpendicular to dentinal tubules (Example 4); conditions: 1 hour
Description: Specific synthetic and natural chemicals may increase the number of collagen cross-links within tooth dentin. To evaluate the effects of two cross-linking agents of different concentrations on the UTS of demineralized crown dentin tested parallel and perpendicular to dentinal tubules, the experiment described below was performed. FIG. 6 illustrates the steps of specimen preparation and treatment.
Twenty sound molars were sectioned into 0.5±0.1 mm thick slabs that were further trimmed to 0.5±0.1 mm according to the tubule orientation (parallel-PR or perpendicular-PE). Specimens were demineralized with 10% phosphoric acid and divided into 10 groups according to treatment: control (water solution)/PR; control/PE, 6.5% proanthocyanidin (PA)/PR, 6.5% PA/PE; 0.65% PA/PR; 0.65% PA/PE; 25% glutaraldehyde (GD)/PR; 25% GD/PE; 5% GD/PR; 5% GD/PE. Specimens were kept in their respective solutions for 1 hour. To assess UTS, specimens were subjected to tensile forces at a crosshead speed of 1 mm/min. Statistical analysis was performed using two-way ANOVA and Fisher's PLSD test (p<0.05).

[3] = Tensile bond strength (TBS) of a total-etch adhesive with or without proteolytic challenge (Example 5); design: species or system human; conditions: for TBS (tensile bond strength): 5% glutaraldehyde 1 hour after etching, One-Step adhesive
Description: To evaluate the effect of glutaraldehyde on the tensile bond strength (TBS) of a total-etch adhesive with or without proteolytic challenge, the experiment described below was performed.
Ten human molars were polished until occlusal dentin was exposed and were divided according to the surface treatment: a control (no treatment) treatment (G1) and a 5% glutaraldehyde treatment (G2). Samples of G1 were etched with 37% phosphoric acid, rinsed, blotted dried, and One-Step (Bisco, Richmond, BC, Canada) was applied, followed by application of a composite resin used to build-up a “crown.” G2 was treated in the same manner, except that after etching, 5% glutaraldehyde was applied on the surface for 1 hour. After 24 hours, samples were sectioned into 1.0×1.0 mm beams. The beams were subdivided according to the proteolytic challenge: stored in water for 2 hours (no challenge) and stored in 1.5% NaOCl solution for 2 hours. Then samples were rinsed and tested in tensile at a crosshead speed of 1 mm/min using a universal testing machine. Data were statistically analyzed using ANOVA and Fisher's PLSD tests (p<0.05).

Work on O=CCCCC=O [GD, glutaraldehyde] yielded a modulus of elasticity ([1]; 2.5% GD group, Baseline (in distilled water, before exposure)) of 4.82 MPa, a modulus of elasticity ([1]; 2.5% GD in PBS pH 7.4, 10 min cumulative exposure) of 20.45 MPa and a modulus of elasticity ([1]; 2.5% GD in PBS pH 7.4, 30 min cumulative exposure) of 30.22 MPa. The modulus of elasticity ([1]; 2.5% GD in PBS pH 7.4, 1 h cumulative exposure) was 32.10 MPa, the modulus of elasticity ([1]; 2.5% GD in PBS pH 7.4, 2 h cumulative exposure) was 34.44 MPa and the modulus of elasticity ([1]; 2.5% GD in PBS pH 7.4, 4 h cumulative exposure) was 34.86 MPa. The “modulus of elasticity, pooled data” value ([1]; 2.5% GD) was 26.15 A MPa, the modulus of elasticity ([1]; 5% GD group, Baseline (in distilled water, before exposure)) was 5.97 MPa and the modulus of elasticity ([1]; 5% GD in PBS pH 7.4, 10 min cumulative exposure) was 18.37 MPa. The modulus of elasticity ([1]; 5% GD in PBS pH 7.4, 30 min cumulative exposure) was 27.25 MPa, the modulus of elasticity ([1]; 5% GD in PBS pH 7.4, 1 h cumulative exposure) was 29.77 MPa and the modulus of elasticity ([1]; 5% GD in PBS pH 7.4, 2 h cumulative exposure) was 33.08 MPa. The modulus of elasticity ([1]; 5% GD in PBS pH 7.4, 4 h cumulative exposure) was 38.14 MPa, the “modulus of elasticity, pooled data” value ([1]; 5% GD) was 25.43 A MPa and the modulus of elasticity ([1]; 25% GD group, Baseline (in distilled water, before exposure)) was 5.32 MPa. For the same compound, the modulus of elasticity ([1]; 25% GD in PBS pH 7.4, 10 min cumulative exposure) was 32.26 MPa, the modulus of elasticity ([1]; 25% GD in PBS pH 7.4, 30 min cumulative exposure) was 37.83 MPa and the modulus of elasticity ([1]; 25% GD in PBS pH 7.4, 1 h cumulative exposure) was 41.31 MPa. The modulus of elasticity ([1]; 25% GD in PBS pH 7.4, 2 h cumulative exposure) was 41.21 MPa, the modulus of elasticity ([1]; 25% GD in PBS pH 7.4, 4 h cumulative exposure) was 42.80 MPa and the “modulus of elasticity, pooled data” value ([1]; 25% GD) was 33.45 B MPa. For the same compound, the UTS ([2]; 5% GD, tested Parallel to dentinal tubules) was 9.8 ± 1.5^BCD,b MPa, the UTS ([2]; 5% GD, tested Perpendicular to dentinal tubules) was 15.7 ± 4.9^BCD,a MPa and the UTS ([2]; 25% GD, tested Parallel to dentinal tubules) was 10.7 ± 2.7^B,b MPa. The UTS ([2]; 25% GD, tested Perpendicular to dentinal tubules) was 18.6 ± 5.7^B,a MPa, the “TBS (tensile bond strength)” value ([3]; No challenge (water 2 hours)) was 71.11 (12.20)A MPa and the “TBS (tensile bond strength)” value ([3]; stored in 1.5% NaOCl 2 hours) was 65.91 (18.06)AB MPa. The “change in TBS values after NaOCl storage” value ([3]; 5% glutaraldehyde, 1.5% NaOCl 2 hours) was “not significantly affected”.
